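Compound exposure: 48 hours, 5 concentrations, 96-well plates. Here, GI50 denotes the concentration required for 50% inhibition of growth.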 The source made the active and inactive calls. Rule as the data show it: active = GI50 up to about 1.1 µM and inactive = higher. Residues, ends and D or L forms follow the SMILES beside them. *: point of attachment. Boc = CC(C)(C)OC(=O)*; Bz = O=C(c1ccccc1)*
Columns and labels:
Assay in all cases: NCI tumour cell line growth inhibition, 48 h
OVCAR-4 = test system: OVCAR-4
SW-620 = test system: SW-620
M14 = test system: M14
NCI-H23 = test system: NCI-H23
T47D = test system: T47D
SR = test system: SR
MDA-MB-231 = test system: MDA-MB-231
A549 = test system: A549
PC-3 = test system: PC-3
SF-268 = test system: SF-268
RPMI-8226 = test system: RPMI-8226
ACHN = test system: ACHN
SK-MEL-28 = test system: SK-MEL-28
UO-31 = test system: UO-31
UACC-257 = test system: UACC-257
MDA-N = test system: MDA-N
BT-549 = test system: BT-549
HCT-116 = test system: HCT-116
HL-60 = test system: HL-60

Row | Structure (SMILES) | GI50 (OVCAR-4) | GI50 (SW-620) | GI50 (M14) | GI50 (NCI-H23) | GI50 (T47D) | GI50 (SR) | GI50 (MDA-MB-231) | GI50 (A549) | GI50 (PC-3) | GI50 (SF-268) | GI50 (RPMI-8226) | GI50 (ACHN) | GI50 (SK-MEL-28) | GI50 (UO-31) | GI50 (UACC-257) | GI50 (MDA-N) | GI50 (BT-549) | GI50 (HCT-116) | GI50 (HL-60)
1 | CCC/C=C/c1cc2c(cc1O)CC[C@@H]1[C@@H]2CC[C@]2(C)[C@@H](O)CC[C@@H]12 | 19 µM (inactive) | 20.6 µM (inactive) | 20.3 µM (inactive) | 17.5 µM (inactive) | 24.9 µM (inactive) | 15.4 µM (inactive) | 15.5 µM (inactive) | 18.1 µM (inactive) | 15.8 µM (inactive) | 18.4 µM (inactive) | 14 µM (inactive) | 16.7 µM (inactive) | 19.3 µM (inactive) | 16.3 µM (inactive) | 15.8 µM (inactive) | 15.1 µM (inactive) | 18.8 µM (inactive) | – | –
2 | NCCC1CN(C(=O)OCc2ccccc2)c2ccccc21 (centres undefined) | 20.4 µM (inactive) | 6.67 µM (inactive) | 13.8 µM (inactive) | 15 µM (inactive) | 3.13 µM (inactive) | 2.9 µM (inactive) | 19.1 µM (inactive) | 27.5 µM (inactive) | 3.86 µM (inactive) | 17.1 µM (inactive) | 12.8 µM (inactive) | 22.6 µM (inactive) | 18.6 µM (inactive) | 12.7 µM (inactive) | 17.3 µM (inactive) | 13.5 µM (inactive) | 16.8 µM (inactive) | 3.59 µM (inactive) | –
3 | CCOC(=O)/C=C(\C)Sc1cc(O)c2ccccc2c1O | 16.1 µM (inactive) | 5.08 µM (inactive) | 10.8 µM (inactive) | 30.4 µM (inactive) | 2.94 µM (inactive) | 7.62 µM (inactive) | 16.4 µM (inactive) | 28.1 µM (inactive) | 26.4 µM (inactive) | 11 µM (inactive) | 24.8 µM (inactive) | 13.8 µM (inactive) | 13.2 µM (inactive) | 4.51 µM (inactive) | 18.8 µM (inactive) | – | 22 µM (inactive) | 6.47 µM (inactive) | 3.77 µM (inactive)
4 | O=C(N/N=C/c1ccc(O)cc1)NNCCO | – | > 100 µM (inactive) | > 100 µM (inactive) | > 100 µM (inactive) | > 100 µM (inactive) | > 100 µM (inactive) | > 100 µM (inactive) | > 100 µM (inactive) | > 100 µM (inactive) | – | – | – | > 100 µM (inactive) | > 100 µM (inactive) | > 100 µM (inactive) | > 100 µM (inactive) | > 100 µM (inactive) | > 100 µM (inactive) | > 100 µM (inactive)
5 | ON[C@H]1C[C@@H](n2cnc3c(NC4CC4)ncnc32)[C@H](O)[C@@H]1O | > 100 µM (inactive) | > 100 µM (inactive) | > 100 µM (inactive) | > 100 µM (inactive) | > 100 µM (inactive) | > 100 µM (inactive) | > 100 µM (inactive) | > 100 µM (inactive) | > 100 µM (inactive) | > 100 µM (inactive) | > 100 µM (inactive) | > 100 µM (inactive) | > 100 µM (inactive) | > 100 µM (inactive) | > 100 µM (inactive) | > 100 µM (inactive) | > 100 µM (inactive) | > 100 µM (inactive) | –
6 | S=C(N1CCN(c2ccccc2)CC1)N1CCN(c2ccccc2)CC1 | > 100 µM (inactive) | > 100 µM (inactive) | > 100 µM (inactive) | > 100 µM (inactive) | > 100 µM (inactive) | – | > 100 µM (inactive) | > 100 µM (inactive) | > 100 µM (inactive) | > 100 µM (inactive) | > 100 µM (inactive) | > 100 µM (inactive) | 86.9 µM (inactive) | > 100 µM (inactive) | > 100 µM (inactive) | 89.5 µM (inactive) | > 100 µM (inactive) | 81.8 µM (inactive) | –
7 | Cn1/c(=N\N=C2\C=C3CCCCC3(C)CC2)sc2ccccc21 (centres undefined) | > 100 µM (inactive) | > 100 µM (inactive) | > 100 µM (inactive) | > 100 µM (inactive) | > 100 µM (inactive) | > 100 µM (inactive) | 71.8 µM (inactive) | > 100 µM (inactive) | > 100 µM (inactive) | > 100 µM (inactive) | – | > 100 µM (inactive) | > 100 µM (inactive) | > 100 µM (inactive) | > 100 µM (inactive) | > 100 µM (inactive) | > 100 µM (inactive) | > 100 µM (inactive) | > 100 µM (inactive)
8 | N#Cc1ccc(Oc2nc3ccc(C(F)(F)F)cc3nc2-c2ccccc2)cc1 | 16.2 µM (inactive) | 21.3 µM (inactive) | 16.1 µM (inactive) | 16.5 µM (inactive) | 16.7 µM (inactive) | 2.77 µM (inactive) | 14.5 µM (inactive) | 16.7 µM (inactive) | 14 µM (inactive) | 24.9 µM (inactive) | – | 15.1 µM (inactive) | 16.6 µM (inactive) | 17.2 µM (inactive) | 21.8 µM (inactive) | 23 µM (inactive) | 34.4 µM (inactive) | 15.3 µM (inactive) | 20.1 µM (inactive)
9 | CC(=O)O[C@H]1CC[C@@]2(C)C(=CC[C@@H]3[C@@H]2CC[C@]2(C)c4c(C)n[nH]c4C[C@@H]32)C1 | 15.7 µM (inactive) | 16.9 µM (inactive) | 16 µM (inactive) | 14.1 µM (inactive) | 9.53 µM (inactive) | 22.3 µM (inactive) | 21.1 µM (inactive) | 14.2 µM (inactive) | 17.3 µM (inactive) | 23.4 µM (inactive) | – | 17.9 µM (inactive) | 20.7 µM (inactive) | 17.7 µM (inactive) | 16.7 µM (inactive) | 20.1 µM (inactive) | 15.2 µM (inactive) | 11.2 µM (inactive) | 10.1 µM (inactive)
10 | CC(C)Oc1c(-c2c(OC(C)C)c(=O)c2=O)c(=O)c1=O | > 49.7 µM (inactive) | > 34.9 µM (inactive) | > 100 µM (inactive) | > 52.8 µM (inactive) | > 100 µM (inactive) | > 100 µM (inactive) | > 36.7 µM (inactive) | > 100 µM (inactive) | – | > 47.3 µM (inactive) | 29.9 µM (inactive) | > 70.6 µM (inactive) | > 68.2 µM (inactive) | > 58.5 µM (inactive) | > 56.4 µM (inactive) | > 29 µM (inactive) | > 48 µM (inactive) | > 32.4 µM (inactive) | 24.7 µM (inactive)
11 | COc1cc2c(cc1C1COc3cc4occc4cc3C1=O)OCO2 (centres undefined) | 2.81 µM (inactive) | > 100 µM (inactive) | > 100 µM (inactive) | > 100 µM (inactive) | > 100 µM (inactive) | 49.1 µM (inactive) | > 100 µM (inactive) | 7.11 µM (inactive) | > 100 µM (inactive) | 55.1 µM (inactive) | 2.67 µM (inactive) | > 100 µM (inactive) | 40.1 µM (inactive) | > 100 µM (inactive) | > 100 µM (inactive) | > 100 µM (inactive) | > 100 µM (inactive) | > 100 µM (inactive) | –
12 | COC(=O)C1=NN2c3ccccc3CN([C@@H](C)c3ccccc3)C(=O)[C@H]2[C@@H]1C | 28.9 µM (inactive) | 43.1 µM (inactive) | 35.2 µM (inactive) | 33.1 µM (inactive) | 17 µM (inactive) | 25.5 µM (inactive) | 83 µM (inactive) | 29.4 µM (inactive) | 23.8 µM (inactive) | 40.3 µM (inactive) | – | 39 µM (inactive) | 49.2 µM (inactive) | 56 µM (inactive) | 26.9 µM (inactive) | 34.5 µM (inactive) | 24.7 µM (inactive) | 33.7 µM (inactive) | 0.769 µM (active)
13 | Cc1c2c(OCC(O)CN3CCN(c4ccccc4)CC3)nn(C)c(=O)c2c(C)n1-c1ccccc1 (centres undefined) | 30.3 µM (inactive) | 29.9 µM (inactive) | 16.3 µM (inactive) | 20.5 µM (inactive) | 27.5 µM (inactive) | – | 25.6 µM (inactive) | 24.7 µM (inactive) | 22 µM (inactive) | 26.2 µM (inactive) | 21.6 µM (inactive) | 20.6 µM (inactive) | 18.4 µM (inactive) | 18.9 µM (inactive) | 28 µM (inactive) | 19.1 µM (inactive) | 21.9 µM (inactive) | 17.5 µM (inactive) | 20.1 µM (inactive)
14 | CC1=CC(=O)C(=C(C)C)CC1 | > 100 µM (inactive) | – | > 100 µM (inactive) | > 100 µM (inactive) | > 100 µM (inactive) | 48 µM (inactive) | > 100 µM (inactive) | > 100 µM (inactive) | > 100 µM (inactive) | > 100 µM (inactive) | – | > 100 µM (inactive) | > 100 µM (inactive) | > 100 µM (inactive) | > 100 µM (inactive) | > 100 µM (inactive) | > 100 µM (inactive) | > 100 µM (inactive) | 53.6 µM (inactive)
15 | CC(NC(=O)C(Cc1ccc(OC(=O)c2ccccc2)cc1)NC(=O)OC(C)(C)C)C(=O)NC(Cc1ccccc1)C(=O)NCC(N)=O (centres undefined) (Boc-Y(Bz)AFG-NH2; configuration not given here) | 20.9 µM (inactive) | 31.1 µM (inactive) | 17.9 µM (inactive) | 23.2 µM (inactive) | 20.9 µM (inactive) | – | 19.4 µM (inactive) | 23.4 µM (inactive) | 18 µM (inactive) | 19.6 µM (inactive) | 24 µM (inactive) | 23 µM (inactive) | 28.7 µM (inactive) | 18.8 µM (inactive) | 19.1 µM (inactive) | 25.8 µM (inactive) | 19 µM (inactive) | 27.5 µM (inactive) | 25.6 µM (inactive)

Source: ChEMBL document CHEMBL1201862, “PubChem BioAssay data set” (2004)
